From PMC6803848, “Exploring New Structural Features of the 18β-Glycyrrhetinic Acid Scaffold for the Inhibition of Anaplastic Lymphoma Kinase” (Molecules, 2019) come the findings set out here.

The test system of one data set is A549. In words: MTT antiproliferative assay, A549 cells. It is filed as cell-based. As to conditions: Homo sapiens; for inhibition at 2 µg/mL: A549, 2 μg/mL; for inhibition at 2 µg/mL / inhibition at 20 µg/mL: 48 h, MTT, read-out: Antiproliferative activity (growth inhibition, %); for inhibition at 20 µg/mL: A549, 20 μg/mL; for IC50: A549, MTT. The method, then:
(§1) All the cells were seeded in 96-well plates and incubated with 5% CO2 at 37 °C for 24 h. Next, the compounds and the reference were dissolved into the culture medium. The final concentration of DMSO in the medium was less than 0.5%. After the cells were treated with compounds for 48 h, the supernatant was removed and 5 mg/mL of a fresh prepared solution of MTT was added to each well and incubated with the cells at 37 °C for another 4 h. The medium was removed, and 100 μL of testing solution was added to each well. After an overnight incubation with 5% CO2 at 37 °C, the absorbance was measured at 490/630 nm by the microplate reader. The IC50 was calculated using GraphPad Prism version 6.0 software (San Diego, CA, USA) from the non-linear curve.
(In general: Tetrazolium dyes change colour on reduction, which living cells bring about.)

For a further data set, the system named is HT29. Nature of the data set: MTT antiproliferative assay, HT29 cells. It is filed as cell-based. As to conditions: Homo sapiens, HT-29; for inhibition at 2 µg/mL: HT29, 2 μg/mL; for inhibition at 2 µg/mL / inhibition at 20 µg/mL: 48 h, MTT, read-out: Antiproliferative activity (growth inhibition, %); for inhibition at 20 µg/mL: HT29, 20 μg/mL; for IC50: HT29, MTT. The method, then:
as §1

The subject of data set [1] is HepG2. Nature of the data set: MTT antiproliferative assay, HepG2 cells. It is filed as cell-based. As to conditions: Homo sapiens. The method, then:
as §1

The next data set has as its system MCF-7. In words: MTT antiproliferative assay, MCF-7 cells. It is filed as cell-based. As to conditions: Homo sapiens, MCF7; MCF-7, MTT. As to the method:
as §1

A further data set deals with PC-3. Nature of the data set: MTT antiproliferative assay, PC-3 cells. It is filed as cell-based. As to conditions: Homo sapiens; PC-3, MTT. The method, then:
as §1

A further data set concerns Karpas299. In words: MTT antiproliferative assay, Karpas299 cells. It is filed as cell-based. As to conditions: Homo sapiens, KARPAS-299. As to the method:
as §1

A further data set has as its target ALK (Homo sapiens, UniProt Q9UM73). Nature of the data set: Kinase activity determination (ELISA), ALK. It is filed as biochemical. As to conditions: purified ALK, 10 μmol/L ATP solution, read-out: Inhibitory effect on ALK activity, IC50. The method, then: The effects of the compounds on the activities of the tyrosine kinase was determined using enzyme-linked immunosorbent assay (ELISA). Briefly, 20 μg/mL substrate [poly (Glu,Tyr)4:1], 50 μL aliquot of 10 μmol/L ATP solution diluted in kinase buffer (50 mmol/L HEPES pH 7.5, 50 mmol/L MgCl2, 0.5 mmol/L MnCl2, 0.2 mmol/L Na3VO4, and 1 mmol/L DTT) was added to each well; 1 μL of various concentrations of target compound and positive control drug diluted in 1% DMSO (v/v) were then added to each well. 1% DMSO was used as the negative control. After 5–10 min preincubation, the kinase reaction was initiated by the addition of purified ALK proteins diluted in 49 μL of kinase buffer. After 30 min preincubation, the anti-phosphotyrosine monoclonalantibody (100 μL; 1:500, diluted in 5 mg/mL BSA T-PBS) was then added. […] A 100 μL aliquot of a solution containing 0.03% H2O2 and 2 mg/mL o-phenylenediamine in 0.1 mol/L citrate buffer was added. The reaction was terminated by the addition of 50 μL of 2 mol/L H2SO4 as the color changed, and the plate was analyzed using a multi-well spectrophotometer at 490 nm.

Another data set concerns LO2 cells. Nature of the data set: MTT cytotoxicity assay, non-tumorigenic liver LO2 cell. It is filed as cell-based. As to conditions: 0.064–40.0 μg/mL, 48 h, Figure 8. As to the method:
Given the mentioned results, the most efficient compound 3j was selected for in depth study, and it was evaluated in different concentrations (0.064–40.0 μg/mL) towards HepG2 cell line and non-tumorigenic liver LO2 cell. A 48 h continuous drug exposure protocol was employed by the MTT cytotoxicity assay.
as §1

The test system of data set [2] is HepG2. Nature of the data set: MTT antiproliferative assay, HepG2 cells. It is filed as cell-based, human. As to conditions: five concentrations, 24, 48 or 72 h, Figure 7.

Molecules are shown by their SMILES. In brackets after ≈: the same amount, converted by molar mass.

Sequence of ALK (Q9UM73 19-1620): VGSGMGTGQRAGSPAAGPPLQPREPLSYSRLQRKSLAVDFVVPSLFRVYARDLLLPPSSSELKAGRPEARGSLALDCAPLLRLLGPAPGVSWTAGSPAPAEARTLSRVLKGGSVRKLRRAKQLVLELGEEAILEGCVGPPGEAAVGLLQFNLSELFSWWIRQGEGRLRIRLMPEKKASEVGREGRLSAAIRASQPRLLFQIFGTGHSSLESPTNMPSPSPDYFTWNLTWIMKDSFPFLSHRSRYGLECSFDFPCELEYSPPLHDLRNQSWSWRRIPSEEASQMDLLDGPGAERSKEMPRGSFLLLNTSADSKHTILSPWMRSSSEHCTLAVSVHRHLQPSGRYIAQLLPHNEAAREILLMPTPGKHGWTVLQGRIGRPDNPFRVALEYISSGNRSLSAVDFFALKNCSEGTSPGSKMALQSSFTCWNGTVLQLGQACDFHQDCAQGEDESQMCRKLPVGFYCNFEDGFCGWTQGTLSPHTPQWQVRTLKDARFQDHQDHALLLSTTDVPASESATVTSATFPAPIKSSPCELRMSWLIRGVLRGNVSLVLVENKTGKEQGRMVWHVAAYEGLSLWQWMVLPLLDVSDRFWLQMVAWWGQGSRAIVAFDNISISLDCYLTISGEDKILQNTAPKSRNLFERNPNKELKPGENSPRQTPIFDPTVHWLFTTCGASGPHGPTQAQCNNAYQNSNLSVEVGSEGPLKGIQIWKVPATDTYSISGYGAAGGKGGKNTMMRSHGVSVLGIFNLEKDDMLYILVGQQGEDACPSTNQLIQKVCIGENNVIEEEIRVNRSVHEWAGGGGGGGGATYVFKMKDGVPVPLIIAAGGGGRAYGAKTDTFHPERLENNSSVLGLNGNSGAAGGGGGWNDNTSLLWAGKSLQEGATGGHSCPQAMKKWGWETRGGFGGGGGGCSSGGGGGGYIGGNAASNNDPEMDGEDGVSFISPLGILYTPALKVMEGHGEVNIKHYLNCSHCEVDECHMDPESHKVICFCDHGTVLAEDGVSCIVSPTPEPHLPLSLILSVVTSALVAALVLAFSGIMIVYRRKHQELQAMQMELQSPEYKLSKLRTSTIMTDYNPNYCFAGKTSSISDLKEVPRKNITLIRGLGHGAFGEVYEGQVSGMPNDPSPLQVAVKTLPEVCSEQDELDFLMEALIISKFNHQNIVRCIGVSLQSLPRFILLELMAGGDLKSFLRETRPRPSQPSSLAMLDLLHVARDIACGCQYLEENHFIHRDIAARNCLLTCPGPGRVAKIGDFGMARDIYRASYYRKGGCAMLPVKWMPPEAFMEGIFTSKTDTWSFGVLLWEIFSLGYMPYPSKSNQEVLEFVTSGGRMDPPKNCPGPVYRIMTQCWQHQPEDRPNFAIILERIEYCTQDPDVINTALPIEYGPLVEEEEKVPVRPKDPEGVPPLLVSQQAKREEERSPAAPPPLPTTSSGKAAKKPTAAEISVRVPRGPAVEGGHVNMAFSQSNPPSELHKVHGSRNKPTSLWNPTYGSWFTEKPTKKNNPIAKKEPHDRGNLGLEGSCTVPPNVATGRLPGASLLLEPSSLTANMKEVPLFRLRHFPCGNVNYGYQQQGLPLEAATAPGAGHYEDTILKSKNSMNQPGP

As to `CC1(C)C2CC[C@]3(C)[C@H](C(=O)C=C4[C@@H]5C[C@@](C)(C(=O)O)CC[C@]5(C)CC[C@]43C)[C@@]2(C)CC[C@@H]1OC(=O)Nc1ccc(Cl)c(Cl)c1` (stereo partly drawn) [3a, 3β-(((3,4-dichlorophenyl)carbamoyl)oxy)-11-oxo-olean-12-en-30-oic acid], the melting point (in general, the temperature of the solid-liquid transition) lay in the range of 260 to 261.4 °C. Moreover, in the data set with A549, the inhibition – broadly, the drop in the measured response relative to a control, in per cent – at 2 µg/mL came to 23.9%; the inhibition at 20 µg/mL is 95.9%; the IC50 (usually the concentration at which inhibition is half-maximal) amounted to 11.2 µg/mL (≈ 17 µM). In the data set on HT29, the inhibition at 2 µg/mL is 11.3%, the inhibition at 20 µg/mL came to 98% and the IC50 came out at 11.4 µg/mL (≈ 17.4 µM). In addition, half-maximal inhibition in the data set on HepG2 [1] (IC50) required 11.6 µg/mL (≈ 17.6 µM). This compound returned an IC50 in the data set with MCF-7 of 9.31 µg/mL (≈ 14.1 µM). In the data set on PC-3, this compound came in with an IC50 of 11.9 µg/mL (≈ 18.1 µM). The compound further returned an IC50 in the data set on Karpas299 of 12.3 µg/mL (≈ 18.7 µM).
As for `CC1(C)C2CC[C@]3(C)[C@H](C(=O)C=C4[C@@H]5C[C@@](C)(C(=O)O)CC[C@]5(C)CC[C@]43C)[C@@]2(C)CC[C@@H]1OC(=O)Nc1ccc(Cl)c(C(F)(F)F)c1` (stereo partly drawn) [3b, 3β-(((4-chloro-3-(trifluoromethyl)phenyl)carbamoyl)oxy)-11-oxo-olean-12-en-30-oic acid], the melting point is 247.8 to 248.5 °C. For the same compound, in the data set with A549, the inhibition at 2 µg/mL was 14%, the inhibition at 20 µg/mL came to 77.3% and half-maximal inhibition (IC50) was put at 11.9 µg/mL (≈ 17.2 µM). Besides, in the data set with HT29, the inhibition at 2 µg/mL is 14.1%, the inhibition at 20 µg/mL is 87.7% and it took 12 µg/mL (≈ 17.3 µM) to reach half-maximal inhibition (IC50). Besides, in the data set on HepG2 [1], the IC50 turned out to be 9.25 µg/mL (≈ 13.4 µM). Moreover, half-maximal inhibition with MCF-7 (IC50) was put at 8.92 µg/mL (≈ 12.9 µM). In the data set with PC-3, half-maximal inhibition (IC50) was put at 12.1 µg/mL (≈ 17.4 µM). This compound also came in with an IC50 in the data set on Karpas299 of 18.6 µg/mL (≈ 26.8 µM).
`CC1(C)C2CC[C@]3(C)[C@H](C(=O)C=C4[C@@H]5C[C@@](C)(C(=O)O)CC[C@]5(C)CC[C@]43C)[C@@]2(C)CC[C@@H]1OC(=O)Nc1cc(Cl)cc(Cl)c1` (stereo partly drawn) [3c, 3β-(((3,5-dichlorophenyl)carbamoyl)oxy)-11-oxo-olean-12-en-30-oic acid]: the melting point was in the range of 236.1 to 237.7 °C. In the data set with A549, the inhibition at 2 µg/mL came to 18.5%, the inhibition at 20 µg/mL was found to be 95.4% and the half-inhibitory concentration (IC50) is 12.3 µg/mL (≈ 18.6 µM). Besides, in the data set on HT29, the inhibition at 2 µg/mL amounted to 8.39%; the inhibition at 20 µg/mL amounted to 98.6%; the midpoint of inhibition, the IC50, lay at 9.74 µg/mL (≈ 14.8 µM). The same compound displayed an IC50 in the data set with HepG2 [1] of 10.7 µg/mL (≈ 16.2 µM). Besides, the midpoint of inhibition in the data set on MCF-7, the IC50, lay at 5.53 µg/mL (≈ 8.4 µM). Besides, the IC50 in the data set with PC-3 is 15 µg/mL (≈ 22.7 µM). Inhibition in the data set on Karpas299 was half-maximal at 15.5 µg/mL (≈ 23.5 µM) (IC50).
Compound `CC1(C)C2CC[C@]3(C)[C@H](C(=O)C=C4[C@@H]5C[C@@](C)(C(=O)O)CC[C@]5(C)CC[C@]43C)[C@@]2(C)CC[C@@H]1OC(=O)Nc1cccc(C(F)(F)F)c1` (stereo partly drawn) [3j, 3β-(((3-(trifluoromethyl)phenyl)carbamoyl)oxy)-11-oxo-olean-12-en-30-oic acid] had a melting point of 239.1 to 240.7 °C. Also, in the data set on A549, the inhibition at 2 µg/mL came out at 17.7%, the inhibition at 20 µg/mL was found to be 88.3% and the IC50 was found to be 2.81 µg/mL (≈ 4.27 µM). Also, in the data set on HT29, the inhibition at 2 µg/mL was 24.8%, the inhibition at 20 µg/mL came to 99.6% and the IC50 worked out at 3.19 µg/mL (≈ 4.85 µM). This compound also yielded an IC50 in the data set with HepG2 [1] of 5.55 µg/mL (≈ 8.44 µM). Also, inhibition with MCF-7 was half-maximal at 5.26 µg/mL (≈ 8 µM) (IC50). The midpoint of inhibition in the data set on PC-3, the IC50, lay at 5.96 µg/mL (≈ 9.06 µM). In the data set on Karpas299, this compound registered an IC50 of 5.59 µg/mL (≈ 8.5 µM). Besides, the IC50 on ALK was found to be 121 nM. Also, in the data set on LO2 cells, the “Toxic action towards LO2 cells” value was “did not exhibit significant toxic action”. For the same compound, in the data set with HepG2 [2], the “Inhibition of proliferation of HepG2 cell, concentration and time dependence” value is reported as “inhibited the proliferation of HepG2 cell in a significant concentration manner, whereas it did not occur in a time-dependent manner”.
For the compound `CC1(C)C2CC[C@]3(C)[C@H](C(=O)C=C4[C@@H]5C[C@@](C)(C(=O)O)CC[C@]5(C)CC[C@]43C)[C@@]2(C)CC[C@@H]1OC(=O)Nc1cc(C(F)(F)F)cc(C(F)(F)F)c1` (stereo partly drawn) [3k, 3β-(((3,5-bis (trifluoromethyl)phenyl)carbamoyl)oxy)-11-oxo-olean-12-en-30-oic acid], the melting point fell in the range of 248.8 to 251.7 °C. Further, in the data set with A549, the inhibition at 2 µg/mL is 18.8%, the inhibition at 20 µg/mL was determined as 88.8% and the IC50 was determined as 2.93 µg/mL (≈ 4.04 µM). In the data set on HT29, the inhibition at 2 µg/mL came to 10.8%, the inhibition at 20 µg/mL was found to be 94.8% and half-maximal inhibition (IC50) was put at 6.47 µg/mL (≈ 8.91 µM). This compound also returned an IC50 with HepG2 [1] of 11.2 µg/mL (≈ 15.5 µM). This compound also gave an IC50 in the data set with MCF-7 of 7 µg/mL (≈ 9.64 µM). Also, in the data set on PC-3, the IC50 came to 10.3 µg/mL (≈ 14.2 µM). In addition, the midpoint of inhibition with Karpas299, the IC50, lay at 9.16 µg/mL (≈ 12.6 µM). Besides, the IC50 on ALK was 278 nM.
Regarding `CC1(C)C2CC[C@]3(C)[C@H](C(=O)C=C4[C@@H]5C[C@@](C)(C(=O)O)CC[C@]5(C)CC[C@]43C)[C@@]2(C)CC[C@@H]1OC(=O)Nc1ccc(OC(F)(F)F)cc1` (stereo partly drawn) [3n, 3β-(((4-(trifluoromethoxy)phenyl)carbamoyl)oxy)-11-oxo-olean-12-en-30-oic acid], the melting point lay in the range of 256.4 to 258.4 °C. In addition, in the data set on A549, the inhibition at 2 µg/mL amounted to 20.1%, the inhibition at 20 µg/mL was determined as 97.1% and the IC50 worked out at 7.42 µg/mL (≈ 11 µM). Besides, in the data set with HT29, the inhibition at 2 µg/mL worked out at 19%, the inhibition at 20 µg/mL worked out at 97.7% and the IC50 stood at 11.3 µg/mL (≈ 16.8 µM). The midpoint of inhibition in the data set on HepG2 [1], the IC50, lay at 12.6 µg/mL (≈ 18.6 µM). The same compound yielded an IC50 in the data set on MCF-7 of 9.3 µg/mL (≈ 13.8 µM). Also, the IC50 in the data set on PC-3 amounted to 13.3 µg/mL (≈ 19.8 µM). In the data set on Karpas299, this compound came in with a concentration for half-maximal inhibition (IC50) of 26 µg/mL (≈ 38.5 µM).
Regarding `Cc1cc(C)cc(NC(=O)O[C@H]2CC[C@@]3(C)C(CC[C@]4(C)[C@@H]3C(=O)C=C3[C@@H]5C[C@@](C)(C(=O)O)CC[C@]5(C)CC[C@]34C)C2(C)C)c1` (stereo partly drawn) [3o, 3β-(((3,5-dimethylphenyl)carbamoyl)oxy)-11-oxo-olean-12-en-30-oic acid], the melting point was 279.8 to 280.6 °C. Also, in the data set with A549, the inhibition at 2 µg/mL was found to be 24.4%, the inhibition at 20 µg/mL was found to be 86.3% and half-maximal inhibition (IC50) required 3.24 µg/mL (≈ 5.24 µM). Besides, in the data set on HT29, the inhibition at 2 µg/mL was found to be 55.8%, the inhibition at 20 µg/mL came out at 98.2% and half-maximal inhibition (IC50) required 7.3 µg/mL (≈ 11.8 µM). Also, the midpoint of inhibition in the data set with HepG2 [1], the IC50, lay at 4.75 µg/mL (≈ 7.69 µM). Besides, half-maximal inhibition with MCF-7 (IC50) was put at 7.86 µg/mL (≈ 12.7 µM). The IC50 with PC-3 is 10.7 µg/mL (≈ 17.3 µM). In the data set with Karpas299, this compound had a half-maximal inhibitory concentration (IC50) of 11.4 µg/mL (≈ 18.5 µM).
